Data from ChEMBL document CHEMBL1139599, “Benzothieno[3,2-b]indole derivatives as potent selective estrogen receptor modulators” (Bioorg Med Chem Lett, 2005).

How the values were obtained:
Estrogen receptor beta = Estrogen receptor beta (Homo sapiens, UniProt Q92731); assay: Inhibition of [3H]17-beta-estradiol binding to human estrogen receptor beta
[1] = biological target: T1, Estrogen receptor (Mus musculus) (UniProt O08537+P19785); conditions: Uterus
Description: Uterine wet weight in ovariectomized mice after 4 weeks of subcutaneous administration at 4 umol/kg (n=5)

[2] = biological target: T1, Estrogen receptor (Mus musculus)
Estrogen receptor = biological target: T2, Estrogen receptor (Homo sapiens, UniProt P03372); assay: Inhibition of [3H]17-beta-estradiol binding to human estrogen receptor alpha
T2 sequence (P03372 whole entry): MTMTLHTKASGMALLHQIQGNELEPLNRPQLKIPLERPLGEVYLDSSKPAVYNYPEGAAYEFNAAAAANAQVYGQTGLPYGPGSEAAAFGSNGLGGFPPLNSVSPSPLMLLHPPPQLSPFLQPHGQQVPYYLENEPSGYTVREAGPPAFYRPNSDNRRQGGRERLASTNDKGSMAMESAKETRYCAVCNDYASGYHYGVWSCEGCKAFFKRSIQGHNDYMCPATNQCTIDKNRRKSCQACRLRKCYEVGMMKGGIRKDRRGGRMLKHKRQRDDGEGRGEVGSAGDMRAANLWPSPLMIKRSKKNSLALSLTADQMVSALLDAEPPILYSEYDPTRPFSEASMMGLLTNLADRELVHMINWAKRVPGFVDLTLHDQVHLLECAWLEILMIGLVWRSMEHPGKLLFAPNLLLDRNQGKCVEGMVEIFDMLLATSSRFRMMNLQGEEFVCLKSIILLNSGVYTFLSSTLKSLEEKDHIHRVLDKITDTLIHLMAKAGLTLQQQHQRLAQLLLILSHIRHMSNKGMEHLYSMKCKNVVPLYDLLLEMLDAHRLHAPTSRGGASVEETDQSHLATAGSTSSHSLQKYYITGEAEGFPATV

T1 sequence (O08537 whole entry, looked up): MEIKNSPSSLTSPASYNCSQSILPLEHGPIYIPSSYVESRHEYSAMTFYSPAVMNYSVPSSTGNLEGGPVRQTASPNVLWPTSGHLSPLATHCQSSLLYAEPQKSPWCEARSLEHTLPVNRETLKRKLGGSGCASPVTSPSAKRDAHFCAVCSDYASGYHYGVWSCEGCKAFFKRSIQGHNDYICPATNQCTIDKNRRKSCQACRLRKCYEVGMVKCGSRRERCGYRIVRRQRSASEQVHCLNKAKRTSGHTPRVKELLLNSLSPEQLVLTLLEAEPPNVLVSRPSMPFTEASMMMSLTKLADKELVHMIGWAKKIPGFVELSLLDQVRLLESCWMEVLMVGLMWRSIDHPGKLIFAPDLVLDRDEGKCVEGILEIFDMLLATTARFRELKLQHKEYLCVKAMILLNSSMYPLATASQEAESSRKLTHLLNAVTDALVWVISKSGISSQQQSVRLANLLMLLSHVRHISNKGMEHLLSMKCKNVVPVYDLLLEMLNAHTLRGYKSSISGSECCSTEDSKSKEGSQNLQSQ
T1 sequence (P19785 whole entry, looked up): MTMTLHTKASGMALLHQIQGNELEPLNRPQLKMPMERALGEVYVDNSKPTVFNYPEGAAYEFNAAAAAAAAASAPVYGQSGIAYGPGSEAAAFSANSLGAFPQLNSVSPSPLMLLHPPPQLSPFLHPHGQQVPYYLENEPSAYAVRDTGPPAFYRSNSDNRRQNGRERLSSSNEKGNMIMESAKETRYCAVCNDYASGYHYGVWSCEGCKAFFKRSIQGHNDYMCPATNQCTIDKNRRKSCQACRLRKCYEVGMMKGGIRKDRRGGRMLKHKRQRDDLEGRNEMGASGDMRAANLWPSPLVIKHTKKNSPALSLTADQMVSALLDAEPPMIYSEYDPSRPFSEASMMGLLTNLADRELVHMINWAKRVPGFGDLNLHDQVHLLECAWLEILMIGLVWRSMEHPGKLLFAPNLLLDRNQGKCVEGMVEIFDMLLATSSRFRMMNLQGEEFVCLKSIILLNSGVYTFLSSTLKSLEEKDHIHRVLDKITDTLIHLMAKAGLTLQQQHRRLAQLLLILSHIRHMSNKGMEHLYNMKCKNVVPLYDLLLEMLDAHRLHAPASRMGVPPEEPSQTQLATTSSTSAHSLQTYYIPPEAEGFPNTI
Sequence of Estrogen receptor beta (Q92731 whole entry): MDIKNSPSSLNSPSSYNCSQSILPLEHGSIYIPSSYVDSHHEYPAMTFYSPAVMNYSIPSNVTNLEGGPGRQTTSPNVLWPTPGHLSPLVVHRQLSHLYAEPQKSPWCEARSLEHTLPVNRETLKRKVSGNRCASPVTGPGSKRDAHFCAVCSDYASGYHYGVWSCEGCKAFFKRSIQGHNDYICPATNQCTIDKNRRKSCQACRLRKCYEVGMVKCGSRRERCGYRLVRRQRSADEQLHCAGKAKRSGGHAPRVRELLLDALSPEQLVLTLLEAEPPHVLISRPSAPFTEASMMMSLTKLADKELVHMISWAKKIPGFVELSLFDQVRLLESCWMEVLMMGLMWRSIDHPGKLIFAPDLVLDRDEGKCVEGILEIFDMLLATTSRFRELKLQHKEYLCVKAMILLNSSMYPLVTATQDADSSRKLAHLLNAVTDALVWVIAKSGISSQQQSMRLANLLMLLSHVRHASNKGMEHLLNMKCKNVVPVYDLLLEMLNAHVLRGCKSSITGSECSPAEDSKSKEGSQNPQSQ

Structure (SMILES) | IC50 (Estrogen receptor beta) | Wet weight [1] | BMD [2] | IC50 (Estrogen receptor)
Oc1ccc2c(c1)sc1c3ccccc3n(Cc3ccc(OCCN4CCOCC4)cc3)c21 | 215 nM | 27 mg | 455 mg/cm3 | 126 nM
Oc1ccc2c(c1)sc1c3cc(O)ccc3n(Cc3ccc(OCCN4CCCCCC4)cc3)c21 | 7.26 nM | 44.2 mg | 534 mg/cm3 | 3.34 nM
Oc1ccc2c(c1)sc1c3cc(O)ccc3n(Cc3ccc(OCCN4CCCCC4)cc3)c21 | 11 nM | 44.2 mg | 548 mg/cm3 | 2.84 nM
CN(C)CCOc1ccc(Cn2c3ccc(O)cc3c3sc4cc(O)ccc4c32)cc1 | 31 nM | 26.2 mg | 480 mg/cm3 | 18 nM
Oc1ccc2c(c1)sc1c3ccccc3n(Cc3ccc(OCCN4CCCCC4)cc3)c21 | 35 nM | 34 mg | 436 mg/cm3 | 39 nM
Oc1ccc2c(c1)sc1c3cc(O)ccc3n(Cc3ccc(OCCN4CCCC4)cc3)c21 | 20.2 nM | 30.7 mg | 469 mg/cm3 | 6 nM
CCN(CC)CCOc1ccc(Cn2c3ccc(O)cc3c3sc4cc(O)ccc4c32)cc1 | 16.4 nM | 37.7 mg | 479 mg/cm3 | 31.2 nM
Oc1ccc2c(c1)sc1c3cc(O)ccc3n(Cc3ccc(OCCN4CCOCC4)cc3)c21 | 21.4 nM | 26.3 mg | 470 mg/cm3 | 10 nM
CCN(CC)CCOc1ccc(Cn2c3ccccc3c3sc4cc(O)ccc4c32)cc1 | 25 nM | 34.9 mg | 448 mg/cm3 | 57.4 nM
Oc1ccc2c(c1)sc1c3ccccc3n(Cc3ccc(OCCN4CCCC4)cc3)c21 | 53.9 nM | 27.6 mg | 505 mg/cm3 | 27.2 nM
CN(C)CCOc1ccc(Cn2c3ccccc3c3sc4cc(O)ccc4c32)cc1 | 45.6 nM | 28.2 mg | 474 mg/cm3 | 51.4 nM
Oc1ccc2c(c1)sc1c3ccccc3n(Cc3ccc(OCCN4CCCCCC4)cc3)c21 | 16.6 nM | 28.5 mg | 444 mg/cm3 | 18 nM
